Measurements reported in the OligoGym collection.
These antisense oligonucleotides have a phosphorothioate backbone; sugars and methylation of C are not fully specified.

target: E2F1; details: ASO
Further: test concentration or dose not given here.

Sequence	remaining target (mRNA or protein) (fraction of control)
TTGCTGATTCCCCAGGCTCA	0.36
GAGGCCTCGATAAATAAATA	0.94
GGACTCATGCACACACATGT	0.16
GGGCCGGTGGGAGCCGGCGG	0.37
CTTCATTCCCCGGTACATGC	0.72
CTCAGAAGTGACCTCCTGGG	0.73
GGAGGACGGCCAGGGACAGG	0.7
ATGTCATAGATGCGCCGCTT	0.77
TGAAAGTTCTCCGAAGAGTC	0.56
TCTGCGAGGAGTCGAGCAGC	0.79
CACAGGAAAACATCGATCGG	0.9
GCCACTGGATGTGGTTCTTG	0.94
GCCGACGCCCACTGTGGTGT	0.45
TGTTAGGAAGCAAATCAAAG	0.74
GTGGTCAGATTCAGTGAGGT	0.43
GGTCCTGGGTCAACCCCTCA	0.62
CCGCTGCCTGCAAAGTCCCG	0.92
TGCACACACAGAGGTGTATG	0.27

Sequence	remaining target (mRNA or protein) (fraction of control)
GAGGAGGCCGGAGAAGTCCT	0.75
GGCCGAAAGTGCAGTTAGAG	≥ 1
GTGACACTATGGTGGCAGAG	0.75
TTTGATCACCATAACCATCT	0.08
CAGGCGGCGGCGGCGGCGCG	0.82
AACCCCACACCCCTCCTCCC	0.86
AGGGACCCCTGCCCTTGCTC	0.23
GGTATAAATTAAATGTTTCC	0.62
CCCATGGCTGTCAGTCAGTC	≥ 1
ATGAGCTGGATGCCCTCAAG	0.56
TTTAACGTCATCAAAATATT	0.93
TCCTGCAGCTGTCGGAGGTC	0.8
CACCGTCCTACACGCCCAGC	0.44
GGTCCCTCCAAGCCCTGTCA	0.2
TCAGCCGAGTGGCTCAGCAG	0.91
TACTCTGGAAACCCTGGTCC	0.75
GCAGGCGCTTCAGACACTGC	0.3

target: GNA13; details: ASO

Sequence	remaining target (mRNA or protein) (fraction of control)
CGATTGGTCAGTCGATCT	≥ 1
GATCTCCTTGGACTTGCG	0.33
ACCCAGTTGAAATTCTCG	0.43
GCTGAAAACCCGGTTATT	0.65
AATTCTGGTTGTAAACTG	≥ 1
CGGTCATAGGCATTCTGT	0.66
AGTCCGCCATCTTGCCGC	≥ 1
CACACGGACAGCACGGAC	0.77
ATATGAAGCTTCTCTCGA	0.42
GCCGCCGCCGCCGCCTCG	≥ 1
AAGGTGGACTTGCCGCTC	0.24
TATCCTTCACGTCGCGGA	≥ 1
ATGTTCTCCGTGTTGATA	0.67
TTGTACATCACTGTAGCA	0.41
GCGCTGGTCGAAGTCCTG	0.7
AGCACACGGACAGCACGG	0.51
CATAGGTCTTTTCCCGAG	0.52
AGTGGTGAAGTGGTGGTA	0.43
CGAGACAGGCATTTGTCG	≥ 1
ACCCTCATACCTTTGATC	0.09
GCCTCGCCACTCGTCAGC	0.5
TATCCAAGTTATCCAGGA	0.48
CGCGCCCAGCAGCAGGAT	0.75
TCACGTTGCTGTAGATGG	≥ 1
CCCGTGGATGATCCGCAT	≥ 1
AGAACAGAATTATGGAGA	0.31
GTCGATCTCCTTGGACTT	0.65

Sequence	remaining target (mRNA or protein) (fraction of control)
ACTAAGATTTTCAAGAAG	0.61
TGTTCAGAGACTCTGTAA	0.47
TGAGTTGTCTCCCCAGGG	≥ 1
TCGAAACATTCAAACCAA	0.42
ATATTGTAAGAAAACCCT	≥ 1
GAAAACCCTTGTTTCCAC	0.33
CTCCATGTTGTTGGTTTG	0.46
CACTTGAGGAAACAAGGA	0.38
CCTTGTTTCCACCATTCC	0.07
ACGACATCATCTTATCTC	0.39
TCACCAGCCGCTTCACAT	0.23
TGCTCGGCCTCGCCACTC	0.52
CATCTTGCCGCCGCCGCC	0.99
GTTGTGATGGAATATAAT	≥ 1
CCGCTGTCTGCCCATAAT	0.08
AAAGTCGTATTCATGGAT	≥ 1
GCCCGGGTATCAAACGAC	0.26
TTGTTGGTTTGAGTTGTC	≥ 1
CAAATCTTGGCGATGAGT	0.31
CGCCTCGCCGCCTCTCCG	0.75
ACTCGTCAGCAGGCAGCC	≥ 1
TCGAAGTCCTGCCCGTGG	≥ 1
CATAAGCACCTGGTCAAA	0.1
CGTAGAATTAAGATTGTT	≥ 1
CAATTTGCACCTTCTCCT	0.29
TCTGACCACCTACATCAA	0.2
AAGCATTTTGAAAGGAAC	≥ 1

Sequence	remaining target (mRNA or protein) (fraction of control)
AACAGATCAAAGCCTGCA	0.64
CGTTTGTTCCGGAAACAT	0.76
GGATCCCCTTCAAATTCT	0.72
GACAGGCATTTGTCGATC	≥ 1
CAGCTTTCAGCCACAAAC	0.99
TCGCCCGCGCCCAGCAGC	0.31
TCTGGTTCTCCAAGTTTA	0.25
AATATTTTACAGATTCAC	≥ 1
CCGCCGCCTCGCCGCCTC	0.33
CTTTTCCCGAGACAGGCA	0.08
TTGAGGTTGTCATGCAGA	0.73
TAAGGGCTTCTGTTGCTG	0.55
CTTGCGTTGCTGCTCGGC	0.36
TGCCTTTGGTGGGTCTTC	0.51
CATCTGCTTCAGGAAGGT	0.55
GAAATAGTCTTTGATGCT	0.61
CGGACCGCGACGGCAGGA	0.58
TATTGATGTCACACTGTC	0.48
GAGCATCAACCAGCACCC	0.11
AGCAGCAGGATCTTCACC	0.54
TCTTATAGCAGGAAGATA	≥ 1
GCAAGCAGAATATCTTGT	0.5
AAGCAAGTCTGTCTTGTT	0.79
GTTTCCTTTCTGATCTCT	0.35
AAAAGATATTAAAACAGC	≥ 1
GACCGCGACGGCAGGAAG	≥ 1

target: GNAS; details: ASO

Sequence	remaining target (mRNA or protein) (fraction of control)
TTGCTGCTGCTGTTTTATTT	≥ 1
TGAATGATGTCACGGCAGTC	0.69
TCATTTGTTTCTTTTATTTC	0.85
TACTGAAAGTGAGAGGGAAC	0.65
TTATTTCATTTGTTTCTTTT	0.64
TTTATTTCATTTTATTTGTT	≥ 1
CTGAATGATGTCACGGCAGT	0.63
CGGCGGATGTTCTCAGTGTC	0.32
TGCTGCTGCTGTTTTATTTA	0.62
ACGGCGGATGTTCTCAGTGT	0.71
TTACTGAAAGTGAGAGGGAA	≥ 1
GTTTCGCAAAATCACTCGGG	0.5
TCTTTTATTTCATTTTATTT	0.84
TTTGGAACATCTAAGCAAGC	0.97
GCAGGTGAAATGAGGGTAGC	≥ 1
TGCCTTCTCACTGTCTCCAT	0.75
AGGTGAAATGAGGGTAGCAG	≥ 1
TGAGAGGGAACTTTTGTGGC	0.72
GTTGCCTTCTCACTGTCTCC	0.75
GCGCAGGTGAAATGAGGGTA	0.9
TTTTATTTCATTTTATTTGT	0.91
CATTTGTTTCTTTTATTTCA	0.65
GTTTCTTTTATTTCATTTTA	≥ 1
